{"source": "patent US7393662B2", "about": "“Human EPO mimetic hinge core mimetibodies, compositions, methods and uses” (Centocor, Inc., priority 2004, dated 2008)", "key": {"normal mice": {"system": "normal mice", "experiment": "in vivo effects on erythropoiesis (hematocrit) in normal mice", "settings": "for duration of response (elevated hematocrit) compared with rHuEPO / maximal hematocrit / maximal response compared with rHuEPO: normal mice, equal activity units / dosed equally", "source_text": "A specific, non-limiting, example of this invention is the EMP-hinge core mimetibody construct where V is the first several N-terminal amino acids of a naturally occurring HC or LC antibody, P is a single copy of the bioactive EMP-1 peptide and L is a tandem repeat of either Gly-Ser or Gly-Gly-Gly-Ser flexible linker, H is a hinge core region and CH2 & CH3 are of the IgG1 or IgG4 isotype subclass. It is thought that this structure will constrain the EMP-1 peptide, but allow sufficient flexibility such that the dimerization of the peptides as part of the assembled homodimer is stabilized. […] This construct is efficiently secreted from cells and appears to be properly folded; overcoming problems associated with 1st generation mimetibodies.\n(§1) In vivo studies were done in normal mice to compare the half-life of EMP-Hinge core mimetibody to that of rHuEPO and to compare their effects on erythropoiesis."}, "[1]": {"system": "EPO dependent UT-7/EPO cell line", "experiment": "in vitro bioactivity (cell proliferation/viability, MTS) assay in EPO dependent UT-7/EPO cells", "assay_type": "cell-based, human", "settings": "for activity/potency, fold greater than the EMP-1 peptide: viability 48 hours after treatment, molar basis; for activity compared with rHuEPO: in vitro cell proliferation assay", "method": "The activity of EMP-Hinge core mimetibody was first tested in an in vitro bioactivity assay. For this assay, the EPO dependent UT-7/EPO cell line, derived from a patient with acute megakaryoblastic leukemia, was used (Komatsu et al., 1993, Blood, vol. 82 (2), 456-464). These cells undergo programmed cell death 48 to 72 hours after withdraw from media supplemented with rHuEPO. Cells that have been incubated in the absence of rHuEPO for 24 hours can be saved if treated with rHuEPO or an EPO agonist. EMP-Hinge core mimetibody was added to cells starved without rHuEPO and cell viability was determined 48 hours after treatment using the tetrazolium compound MTS (CellTiter 96 Aqueous One Solution, Promega) that is metabolized by living cells to yield a product with an absorbance that can be measured. […] In addition, these same cells were stimulated with EMP-Hinge core mimetibody and tyrosine phosphorylation patterns visualized by running cell lysate through a polyacrylamide gel."}, "[2]": {"system": "cells that express the EPO receptor", "experiment": "complement lysis of cells that express the EPO receptor (immune effector function)", "assay_type": "cell-based", "source_text": "It has been shown that mutation of two […] (L) residues, L234 & L235, in the IgG1 lower hinge region to alanine (A) will abrogate the ability of the immunoglobulin to mediate complement dependent cytotoxicity (CDC) and antibody dependant cellular cytotoxicity (ADCC) (Hezereh et al., 2001, J. Virol., vol. 75 (24), 12161-68). […] This may be due to the low number of receptors that are found on erythroid progenitor cells."}, "[3]": {"experiment": "serum concentration by ELISA / half-life in normal mice", "assay_type": "in vivo", "settings": "serum concentrations by ELISA", "method": "as §1\nThe serum concentrations of both rHuEPO and EMP-Hinge core mimetibody were measured by ELISA."}, "[4]": {"settings": "in 50% serum; cited from earlier work"}, "EPO receptor": {"molecular_target": "T1, EPO receptor (Homo sapiens, UniProt P19235)", "T1 sequence (P19235 25-508)": "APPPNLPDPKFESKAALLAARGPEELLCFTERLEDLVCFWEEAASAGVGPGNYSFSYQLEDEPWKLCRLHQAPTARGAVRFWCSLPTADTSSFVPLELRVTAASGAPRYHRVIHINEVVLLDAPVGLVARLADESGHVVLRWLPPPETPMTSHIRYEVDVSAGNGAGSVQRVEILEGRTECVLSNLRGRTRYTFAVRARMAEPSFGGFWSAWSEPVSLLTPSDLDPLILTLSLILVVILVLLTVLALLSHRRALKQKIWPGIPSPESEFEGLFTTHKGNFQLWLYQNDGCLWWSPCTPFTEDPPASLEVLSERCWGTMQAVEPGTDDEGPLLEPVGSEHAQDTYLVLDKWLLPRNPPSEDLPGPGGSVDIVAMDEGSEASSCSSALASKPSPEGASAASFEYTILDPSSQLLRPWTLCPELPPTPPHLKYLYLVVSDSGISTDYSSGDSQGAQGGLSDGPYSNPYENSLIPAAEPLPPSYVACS", "settings": "cited from earlier work"}, "[5]": {"settings": "cited from earlier work"}, "[6]": {"settings": "listed as EMP-Hinge core mimetibody"}}, "data": [{"substance": "EMP-hinge core mimetibody: V (QIQ)-EMP-1 peptide-GS or GGGS linker-hinge core CPPCP-CH2-CH3 of IgG1 or IgG4; assembled homodimer", "values": [{"measurement": "change in hematocrit (in vivo expansion of erythroid progenitors)", "setting": "normal mice; in vivo", "value": "significant increases in hematocrit"}, {"measurement": "duration of response (elevated hematocrit) compared with rHuEPO", "setting": "normal mice", "value": "elevated levels are maintained for a longer period"}, {"measurement": "maximal hematocrit / maximal response compared with rHuEPO", "setting": "normal mice", "value": "significantly higher"}, {"measurement": "duration of response (elevated hematocrit) compared with rHuEPO", "setting": "normal mice; [6]", "value": "prolonged"}, {"measurement": "maximal hematocrit / maximal response compared with rHuEPO", "setting": "normal mice; [6]", "value": "higher maximal response"}, {"measurement": "potency, fold less than rHuEPO", "setting": "[1]; UT-7/EPO cells, on a molar basis", "value": 5, "unit": "fold"}, {"measurement": "activity/potency, fold greater than the EMP-1 peptide", "setting": "[1]; UT-7/EPO cells", "value": "more than 500 fold"}, {"measurement": "activity/potency, fold greater than the EMP-1 peptide", "setting": "[1]; UT-7/EPO cells, listed as EMP-Hinge core mimetibody", "value": 500, "unit": "fold"}, {"measurement": "activity compared with rHuEPO", "setting": "[1]", "value": "substantially similar"}, {"measurement": "activity compared with rHuEPO", "setting": "[1]; [6]", "value": "in the range of rHuEPO"}, {"measurement": "effector function associated effects", "setting": "[2]", "value": "no effector function associated affects have been observed"}, {"measurement": "complement lysis of cells that express the EPO receptor", "setting": "[2]; preliminary studies", "value": "does not mediate complement lysis"}, {"measurement": "approximate half-life relative to rHuEPO", "setting": "[3]", "value": "at least several times"}]}, {"substance": "GGTYSCHFGPLTWVCKPQGG [EMP-1]", "values": [{"measurement": "ex-vivo half-life", "setting": "[4]", "value": 8, "unit": "h"}, {"measurement": "activity, fold less than HuEPO", "setting": "EPO receptor", "value": "10,000 to 100,000 fold"}]}, {"substance": "erythropoietin: glycoprotein hormone of 165 amino acids and four carbohydrate chains, primary regulator of erythropoiesis", "values": [{"measurement": "time at which peak serum levels are achieved", "setting": "[5]; after subcutaneous administration", "value": "5 to 24", "unit": "h"}, {"measurement": "circulating half-life", "setting": "[5]; intravenously administered, patients with CRF", "value": "3 to 4", "unit": "h"}, {"measurement": "detectable levels of plasma erythropoietin maintained", "setting": "[5]; within the therapeutic dose range", "value": "at least 24 hours"}]}]}
